Where no end group is shown, it is not given here.
What was measured:
[1] = test system: 2C11 antibody (binding to factor VIII); test: ELISA: inhibition of binding of 2C11 antibody to immobilized FVIII by soluble peptides; design: species or system human
Method: The FVIII is immobilized on the ON plate at 4° C. In parallel, the inhibitor antibody is preincubated with its epitope peptide(s) in the ON range at 4° C. in 0.1% PBS-T-2% milk. After saturation for 1 hour with 0.1% PBS-T-2% milk, the Ab-peptide mixtures are incubated with the immobilized FVIII for 2 hours at 37° C. Between each of these incubations, 3 washings with 0.1% PBS-T are carried out except after the saturation. Detection of the FVIII-Ab complex is achieved by a mouse or human anti-IgG coupled to peroxidase diluted to 1:3000 incubated for 1 hour at 37° C. After 5 washings with 0.1% PBS-T, the peroxidase substrate (OPD) is added. The reaction takes place for 30 minutes in the dark then measurement of the absorbance is carried out at 450 nm. After stopping the reaction by the addition of H2SO4 4N, a new measurement is carried out at 490 nm.
The blocking activity of the decoys can be verified in vitro in an ELISA test. […] The neutralizing ability of the decoy can be confirmed in a functional test such as the Bethesda Test (method of Kasper, [Kasper et al., 1975, Thromb. Diath. Haemorrh. 34, 875-6]).
The Inventors studied the ability of these soluble peptides to inhibit the binding of the 2C11 antibody to factor VIII in an ELISA test in vitro in the following manner: immobilization of FVIII, pre-incubation of 2C11 with the soluble peptides in the range (200 μM, 20 μM, 2 μM, 200 nM, 20 nM, 2 nM) overnight at 4° C., then incubation of this premixture on the FVIII, then development of the 2C11 antibody. The results obtained are indicated hereafter.

2C11 antibody [2] = test: Bethesda functional coagulation test: neutralization of the inhibiting activity of 2C11 by peptides; assay type: biochemical, human; conditions: for neutralization of the inhibiting activity of 2C11 (in words): 2C11 3.5 nM
Text: This functional test (Kasper, C. K. & Pool, J. G. (1975) Letter: Measurement of mild factor VIII inhibitors in Bethesda units, Thromb Diath Haemorrh. 34, 875-6) consists of measuring the time necessary for a mixture composed of different coagulation factors (FIXa, FVIII, phospholipides, calcium etc.) in order to coagulate completely. The inhibiting effect of an antibody is characterized in such a test by an extension of the coagulation time, the inhibiting ability of the antibody becomes greater as the extension of the coagulation time increases. The inhibiting character of an antibody is expressed in Bethesda units, which corresponds to the reciprocal concentration of antibodies in order to neutralize 50% of the coagulant activity of the FVIII. In contrast, the neutralizing effect of the peptides is translated by a return to the initial coagulation time obtained in the absence of inhibitor.
The functional test followed is derived from the abovementioned test described by Kasper. The anti-FVIII monoclonal antibodies are diluted in an 0.05 M imidazole buffer, pH 7.3. An equal volume of this preparation (250 μl) with normal plasma buffered in imidazole (0.1 M, pH 7.4) are mixed and incubated for 2 hours at 37° C. Similarly, normal plasma buffered in imidazole is mixed with a non-specific antibody which constitutes the control. The inhibiting activity of an antibody is read from a semi-logarithmic graph representing the correlation between the residual activity of the FVIII and the inhibiting activity.
This mixture is then treated as above.
Firstly, the Inventors evaluated in a functional coagulation test (Bethesda test) the ability of peptide 107 to restore the procoagulant activity of FVIII in the presence of 2C11. FIG. 2 depicts the dose-dependent neutralization of the inhibiting activity of 2C11 by peptide 107. […] However, higher peptide concentrations are necessary in order to achieve an effectiveness similar to that of peptide 107 (data not shown).
FIG. 2 represents the evolution of the activity of factor VIII, evaluated by the Bethesda test, in the presence of 3.5 nM of 2C11 antibody as a function of peptide concentration. The 2C11 antibody was incubated overnight at 4° C. in the presence of a control peptide or peptide 107 (SCHAWSNRRTCR) (SEQ ID NO: 10) in variable concentration. The factor VIII was then incubated for 2 hours at 37° C. with these peptide-antibody mixtures or with peptide 107 alone, then its residual activity was measured with a coagulometer, in one stage.

factor VIII = test: Bethesda test: effect on procoagulant activity of factor VIII; assay type: biochemical, human; conditions: no antibody
Text: This functional test (Kasper, C. K. & Pool, J. G. (1975) Letter: Measurement of mild factor VIII inhibitors in Bethesda units, Thromb Diath Haemorrh. 34, 875-6) consists of measuring the time necessary for a mixture composed of different coagulation factors (FIXa, FVIII, phospholipides, calcium etc.) in order to coagulate completely. The inhibiting effect of an antibody is characterized in such a test by an extension of the coagulation time, the inhibiting ability of the antibody becomes greater as the extension of the coagulation time increases. […]
The functional test followed is derived from the abovementioned test described by Kasper. […] The inhibiting activity of an antibody is read from a semi-logarithmic graph representing the correlation between the residual activity of the FVIII and the inhibiting activity.
FIG. 1 represents the effect of the 2C11 antibody on the activity of factor VIII evaluated by the Bethesda test. Factor VIII was incubated in the presence of 3.5 nM of 2C11 antibody for 2 hours at 37° C., the residual activity of factor VIII was then measured with a coagulometer, in one stage.
FIG. 2 represents the evolution of the activity of factor VIII, evaluated by the Bethesda test, in the presence of 3.5 nM of 2C11 antibody as a function of peptide concentration. […]

2C11 antibody [3] = test: In vivo neutralization of 2C11 in mice deficient in FVIII given human FVIII; design: species or system mouse
Method: Secondly, the neutralization properties of peptide 107 were studied in vivo, using a mouse model deficient in FVIII. […] Having determined this, 2C11 antibody ([…]) incubated alone, in the presence of peptide 107, or a control peptide (650 μM and 700 μM, respectively) was injected into the tail vein of three groups of mice respectively. Thirty minutes later, the FVIII plasma count of these mice was reconstituted by the injection of 0.5 UI of human FVIII and after fifteen minutes the plasma procoagulant activity was measured.
The 2C11 antibody (16.5 nM) or a mixture containing the 2C11 antibody (16.5 nM) and peptide 107 (650 μM) or a control peptide (700 μM) was injected into the tail vein of a “knock out” mouse, deficient in factor VIII, at a rate of 2.5 μg of 2C11 antibody, 1 mg of peptide 107 and 1 mg of control peptide. After 30 minutes, 0.5 UI of human factor VIII was injected and the plasma procoagulant activity was then measured by a chromogenic test 15 minutes later.
The percentage of residual activity of factor VIII is represented on the Y-axis. Bar A represents the effect of the injection of factor VIII without prior injection of antibodies (100% of residual activity). Bar B represents the effect of the injection of the 2C11 antibody alone prior to the injection of factor VIII. […]

[4] = test system: FVIII inhibitors in serums of hemophilia patients; test: Reactivity of serums of hemophilia patients with inhibitors with peptide 107; assay type: binding, human; conditions: out of 12 serums of hemophilia patients with inhibitors; preliminary study
Text: Thirdly, the Inventors looked at whether the neutralizing properties of peptide 107 vis-à-vis 2C11 could also be applied to other serums of hemophilia patients with inhibitors.

[5] = peptide concentration 0.002 (2 nM)
[6] = peptide concentration 0.02 (20 nM)
[7] = peptide concentration 20 (range: 20 μM)
[8] = peptide concentration 200 (range: 200 μM), pre-incubation overnight at 4° C.

Question: “CMKWSNRSSRWC (Ac-CMKWSNRSSRWC; cysteine pairing not given here) [compound 106]” was tested. Which “% inhibition of 2C11 binding to FVIII” value [1, 5] did it give?
Answer: The value was 0%.

Question: And the “% inhibition of 2C11 binding to FVIII” value [1, 6]?
Answer: The value was 0%.

Question: What about the “% inhibition of 2C11 binding to FVIII” value ([1]; peptide concentration 2 (2 μM)) of the same sequence?
Answer: The value was 0.00%.

Question: And the “% inhibition of 2C11 binding to FVIII” value [1, 7]?
Answer: Its value is 21.99%.

Question: What about the “% inhibition of 2C11 binding to FVIII” value [1, 8] of the same sequence?
Answer: Its value is 36.56%.

Question: What about the “neutralization of the inhibiting activity of 2C11 (in words)” value (2C11 antibody [2]) of the same sequence?
Answer: Its value is “effectively neutralize”.

Question: Which results are given for “ECGSHAWGRRCK (chain 1 Ac-ECGSHAWGRRCK; chain 2 Ac-ECGSHAWGRRCK; cysteine pairing not given here) [compound 104]”?
Answer: % inhibition of 2C11 binding to FVIII [1, 5]: 0%; % inhibition of 2C11 binding to FVIII [1, 6]: 0%; % inhibition of 2C11 binding to FVIII ([1]; peptide concentration 2 (2 μM)): 13.44%; % inhibition of 2C11 binding to FVIII [1, 7]: 30.68%; % inhibition of 2C11 binding to FVIII [1, 8]: 63.71%; neutralization of the inhibiting activity of 2C11 (in words) (2C11 antibody [2]): effectively neutralize

Question: Which results are given for “CSKWHNRSKRHC (Ac-CSKWHNRSKRHC; cysteine pairing not given here) [compound 105]”?
Answer: % inhibition of 2C11 binding to FVIII [1, 5]: 0%; % inhibition of 2C11 binding to FVIII [1, 6]: 0%; % inhibition of 2C11 binding to FVIII ([1]; peptide concentration 2 (2 μM)): 10.27%; % inhibition of 2C11 binding to FVIII [1, 7]: 45.04%; % inhibition of 2C11 binding to FVIII [1, 8]: 75.58%; neutralization of the inhibiting activity of 2C11 (in words) (2C11 antibody [2]): effectively neutralize

Question: For SCHAWSNRRTCR [peptide 107], which “inhibition of the 2C11 Ab/FVIII bond (in words)” value [1] is on record?
Answer: The value was “the most effective”.

Question: What about the “% inhibition of 2C11 binding to FVIII” value [1, 5] of the same sequence?
Answer: The value was 0%.

Question: What about the “% inhibition of 2C11 binding to FVIII” value [1, 6] of the same sequence?
Answer: The value was 0%.

Question: And the “% inhibition of 2C11 binding to FVIII” value ([1]; peptide concentration 2 (2 μM))?
Answer: The value was 37.33%.

Question: What about the “% inhibition of 2C11 binding to FVIII” value [1, 7] of the same sequence?
Answer: Its value is 80.04%.

Question: And the “% inhibition of 2C11 binding to FVIII” value [1, 8]?
Answer: Its value is 90.48%.

Question: And the “neutralization of the inhibiting activity of 2C11 (in words)” value (2C11 antibody [2])?
Answer: Its value is “makes it possible to neutralize the effect of the 2C11 antibody”.

Question: And the IC50 (2C11 antibody [2]; 2C11 concentration 3.5 nM)?
Answer: The IC50 was 19 µM.

Question: And the “peptide concentration for total neutralization of 2C11 inhibiting effect” value (2C11 antibody [2]; 2C11 concentration 3.5 nM)?
Answer: Its value is roughly 100 µM.

Question: What about the “effect of peptide incubated with FVIII alone on procoagulant activity of FVIII” value (factor VIII) of the same sequence?
Answer: Its value is “does not at all modify the procoagulant activity of the FVIII”.

Question: What about the “procoagulant activity of the FVIII maintained” value (2C11 antibody [3]; 2C11 16.7 nM + peptide 650 μM injected in tail vein, 0.5 UI human FVIII after 30 min, measured 15 min later) of the same sequence?
Answer: Its value is 52%.

Question: And the “neutralizing effect on 2C11 in vivo (in words)” value (2C11 antibody [3]; FVIII-deficient mice, peptide 107 650 μM, control peptide 700 μM)?
Answer: Its value is “specifically neutralizes the effect of the 2C11 antibody in vivo”.

Question: What about the “number of patient serums reacting with the peptide” value [4] of the same sequence?
Answer: The value was 2.

Question: What does the source list for “QCHTWSNRRSCL (Ac-QCHTWSNRRSCL; cysteine pairing not given here) [compound 108]”?
Answer: % inhibition of 2C11 binding to FVIII [1, 5]: 0%; % inhibition of 2C11 binding to FVIII [1, 6]: 0%; % inhibition of 2C11 binding to FVIII ([1]; peptide concentration 2 (2 μM)): 15.79%; % inhibition of 2C11 binding to FVIII [1, 7]: 25.99%; % inhibition of 2C11 binding to FVIII [1, 8]: 60.69%; neutralization of the inhibiting activity of 2C11 (in words) (2C11 antibody [2]): effectively neutralize

Question: Which results are given for “KCGRWSNRSSCT (Ac-KCGRWSNRSSCT; cysteine pairing not given here) [compound 103]”?
Answer: % inhibition of 2C11 binding to FVIII [1, 5]: 0%; % inhibition of 2C11 binding to FVIII [1, 6]: 0%; % inhibition of 2C11 binding to FVIII ([1]; peptide concentration 2 (2 μM)): 3.47%; % inhibition of 2C11 binding to FVIII [1, 7]: 28.26%; % inhibition of 2C11 binding to FVIII [1, 8]: 62.73%; neutralization of the inhibiting activity of 2C11 (in words) (2C11 antibody [2]): effectively neutralize

Question: Which “% inhibition of 2C11 binding to FVIII” value [1, 5] does the source give for “RCHAWSNRKSCV (Ac-RCHAWSNRKSCV; cysteine pairing not given here) [compound 109]” here?
Answer: Its value is 0%.

Question: What about the “% inhibition of 2C11 binding to FVIII” value [1, 6] of the same sequence?
Answer: Its value is 0%.

Question: And the “% inhibition of 2C11 binding to FVIII” value ([1]; peptide concentration 2 (2 μM))?
Answer: Its value is 12.46%.

Question: What about the “% inhibition of 2C11 binding to FVIII” value [1, 7] of the same sequence?
Answer: Its value is 37.48%.

Question: What about the “% inhibition of 2C11 binding to FVIII” value [1, 8] of the same sequence?
Answer: Its value is 75.05%.

Question: What about the “neutralization of the inhibiting activity of 2C11 (in words)” value (2C11 antibody [2]) of the same sequence?
Answer: Its value is “effectively neutralize”.
